For series [1], the system named is Chikungunya virus. Kind of series: Antiviral activity against Chikungunya virus by cell-based assay. The class given is functional.
Series [2] has as its system Chikungunya virus. Kind of series: Antiviral activity against Chikungunya virus. Format: functional.
The test system of series [3] is Chikungunya virus. As to the kind of experiment: Antiviral activity against Chikungunya virus infected in African green monkey Vero cells assessed as inhibition of virus-induced cytopathic effect. The class given is functional, cell-based. (In general: Protection from cytopathic effect is a common read-out in antiviral testing.)
A short description of series [4]: Selectivity index, ratio of CC50 for African green monkey Vero cells to EC50 for Chikungunya virus. The class given is toxicity, cell-based. The note with it: read-out: Ratio CC50/EC50.
Series [5] has as its system Chikungunya virus. Kind of series: Antiviral activity against Chikungunya virus infected in BHK21 cells assessed as inhibition of viral replication after 24 hrs. The class given is functional, cell-based. Particulars: BHK-21, 24 h.
Series [6] in a line: Inhibition of Chikungunya virus IMPDH.

Molecules are shown by their SMILES. ≈ marks a conversion by molar mass, not a printed value.

For `CCOC(=O)c1c(CS(=O)(=O)c2ccccc2)n(C)c2cc(Br)c(O)c(CN(C)C)c12`, it took 56.4 µM to reach half-maximal inhibition in series [1] (IC50). As to `C=C(C)[C@@]1(O)[C@@H]2OC3(c4ccccc4)O[C@H]1[C@@H](C)[C@]1(O3)C3=CC(=C(Cl)Cl)[C@H](OC(=O)c4ccccc4)[C@@]3(O)[C@H](OC(C)=O)[C@@]3(COC(C)=O)O[C@H]3[C@@H]21`, the response in series [2] was half-maximal at 1500 nM (EC50).

For the compound `CCOC(=O)c1c(C[S+]([O-])c2ccccc2)n(C)c2cc(Br)c(O)c(CN(C)C)c12` (stereo unspecified), in series [1], the concentration for half-maximal inhibition (IC50) – broadly, the concentration that inhibits the measured activity by half – was 54.5 µM. For the compound `CCOc1ccc(/C=N/NC(=O)C2CC2c2ccc(C(C)(C)C)cc2)cc1OCC` (stereo unspecified), the EC50 (as a rule, the concentration that produces a half-maximal response) in series [3] was found to be 5 µM. Further, the selectivity ratio in series [4] was 14.

With `CCOc1ccc(/C=N/NC(=O)/C=C/c2ccc(C(C)(C)C)cc2)cc1OCC`, in series [3], the EC50 was determined as 3.2 µM. In series [4], the selectivity ratio is 32. Consider `CC1(C)CC[C@]2(C)CC[C@]3(C)C(=CC[C@@H]4[C@@]5(C)CCC(=O)C(C)(C)[C@@H]5CC[C@]43C)[C@@H]2C1`, for which a half-maximal effect in series [1] (EC50) was put at 86 µM. `O=c1cnn([C@@H]2O[C@H](CO)[C@@H](O)[C@H]2O)c(=O)[nH]1` [6-AZAURIDINE] displayed an EC50 in series [2] of 0.2 µg/mL. `CCN(CC)CCCC(C)Nc1ccnc2cc(Cl)ccc12` (stereo unspecified) [CHLOROQUINE]: the IC50 in series [2] was found to be 1.1 µg/mL (≈ 3.44 µM). With `COC(=O)C[C@](O)(CCC(C)(C)O)C(=O)O[C@@H]1C(OC)=C[C@]23CCCN2CCc2cc4c(cc2[C@H]13)OCO4` [HARRINGTONINE], in series [5], the EC50 worked out at 240 nM.

`C=C(C)[C@@H]1CC[C@]2(C)CC[C@]3(C)[C@H](CC[C@@H]4[C@@]5(C)CCC(=O)C(C)(C)[C@@H]5CC[C@]43C)[C@@H]12` [LUPENONE]: in series [1], it took 77 µM to reach a half-maximal effect (EC50). The compound `COc1c(C)c2c(c(O)c1C/C=C(\C)CCC(=O)O)C(=O)OC2` [MYCOPHENOLIC ACID] had an IC50 in series [6] of 200 nM. `C=C[C@H]1CN2CC[C@H]1C[C@H]2[C@H](O)c1ccnc2ccc(OC)cc12` [QUININE] had an IC50 in series [2] of 0.1 µg/mL (≈ 0.308 µM).

`NC(=O)c1ncn([C@@H]2O[C@H](CO)[C@@H](O)[C@H]2O)n1` [RIBAVIRIN]: the midpoint of the response in series [2], the EC50, lay at 83.3 µg/mL.

`CCOC(=O)c1c(CSc2ccccc2)n(C)c2cc(Br)c(O)c(CN(C)C)c12` [UMIFENOVIR] yielded an IC50 in series [1] of 12.2 µM.
